The subject of this experiment is canine liver gene expression. Kind of experiment: Canine array gene expression profile of liver from dog dosed with erythromycin estolate. As to conditions: Canis lupus familiaris, 240 h, 10 days. Type of experiment: in vivo. As for the experimental part:
For liver or kidney, about 0.15-0.20 g of tissue was weighed and placed in a 15 ml conical tube. All tissue were kept on dry ice when other samples were being weighed.
About 3.8 ml of RLT buffer was added to the tube containing the sample. The RLT buffer® from Qiagen can be prepared beforehand by adding 10 μl betamercaptoethanol to each 1.0 ml of lysis buffer needed. The tissue was homogenized using the rotor-stator homogenizer for 45 seconds. A IKA Ultra Turrax T25 homogenizer set at speed 4 with the S25N-10G dispersing element can be used. Alternatively, a Virtishear Cyclone 750W rotor/stator homogenizer (Virtis item #278077) can be used with the 7 mm microfine sawtooth shaft and generator (195 mm long with a processing range of 0.25 ml to 20 ml, item #372718). After homogenization, samples were stored on ice until all samples were homogenized. To clean the homogenizing tip between samples, the tip was first run for a few seconds in 95% ethanol and then rinsed by squirting with fresh 95% ethanol. This process was repeated with nanopure water.
The tissue lysate was centrifuged at room temperature for 10 minutes at 3700-3800 rpm in a Beckman GS-6 (or equivalent) centrifuge to remove nuclei thus reducing DNA contamination.
The supernatant of the lysate was transferred to a clean 15 ml conical tubes containing an equal volume of 70% EtOH in DEPC treated H2O, being careful not to include any of the pellet or fatty layer and mixed. About 3.8 ml of sample was added to the RNeasy spin column placed in a 15 ml centrifuge tube and centrifuged at 3000×g (3690-3710 rpm, Beckman GS-6) for 5 min. The flow-through was discarded. The remaining sample was added to the appropriate column and spun at 3000×g for 5 minutes and the flow-through was discarded.
About 4.0 ml of Buffer RW1 (Qiagen®) was added to the column and spun as before then about 2.5 ml of buffer RPE (Qiagen®) was added to column and spun at 3000×g (3690-3710 rpm, Beckman GS-6) for 2 minutes. In this example, RPE buffer was supplied as a concentrate so 4 volumes of 95% EtOH was added before use. For the midi kit, about 220 ml of 95% EtOH would be added to 55 ml of RPE. Another 2.5 ml of buffer RPE was added and spun for 5 minutes to also dry out column. The column, including the tip, should be dry for the next elution step.
For elution, the column that has the RNA bound to a clean 15 ml tube was transferred and 200 μl of RNase-free water was added to the column, allowed to sit for 1 minute, and spun for 3 minutes at 3000×g (3690-3710 rpm, Beckman GS6). This step was repeated into the same tube but with 200 μl RNase-free water.
Liver and kidney organs were isolated from a dog which was dosed with erythromycin esolate at 100 mg/kg/day for 2 or 10 days. The dog was euthanized 16 hours after the last dosage and the organs were harvested according to standard sterile procedure. RNA was isolated from the kidney and liver as detailed in Example 1. cDNA was made from the RNA and used as probes as detailed in the Examples above.

Like-named read-outs stand apart in the source and are kept apart here.

`CCC(=O)O[C@H]1[C@H](O[C@@H]2[C@@H](C)[C@H](O[C@H]3C[C@@](C)(OC)[C@@H](O)[C@H](C)O3)[C@@H](C)C(=O)O[C@H](CC)[C@@](C)(O)[C@H](O)[C@@H](C)C(=O)[C@H](C)C[C@@]2(C)O)O[C@H](C)C[C@@H]1N(C)C` [erythromycin estolate]: the fold induction at 100 mg/kg was 1.5 (read-out: Alkaline phosphatase fold induction); 1.5 (read-out: Angiopoietin-related protein 3 (ANGPTL3) fold induction); 1.2 (read-out: BR-cadherin fold induction); 1.5 (read-out: BRCA1 fold induction); 1.5 (read-out: Beta-glucuronidase fold induction); 1.1 (read-out: Canis familiaris mitochondrion, complete genome fold induction). Also, the fold induction at 100 mg/kg (read-out: Catalase fold induction) came out at 1.4; the fold induction at 100 mg/kg (read-out: Caveolin-2 fold induction) worked out at 1.2; the fold induction at 100 mg/kg (read-out: Cubilin fold induction) turned out to be 1.1; the fold induction at 100 mg/kg (read-out: Cytochrome c oxidase subunit II fold induction) was found to be 1.6; the fold induction at 100 mg/kg (read-out: Cytochrome c oxidase subunit VIIaL fold induction) was found to be 1; the fold induction at 100 mg/kg (read-out: c-erb B-2 fold induction) was 1.3.
